Data on eleven compounds can be found in patent US20130004936A1, “SUPERCOOLING PROMOTING AGENT” (National University Corporation Hokkaido Universit, priority 2010, published 2013).

What all share (assay type): physicochemical
Data set [1] is described as follows: Supercooling activity, droplets on cooled copper plate, silver iodide as ice nucleus substance. Particulars: for supercooling activity: against an ice nucleus substance AgI, concentration not given; for freezing temperature (INT50): 0.1 mass % substance, 10 mM AgI, cooling 0.2° C./min. Here is the method:
(§1) In the present invention, a supercooling activity (also referred to as ice nucleus formation inhibitory activity) was measured by the following method. That is, an object to be measured was mixed at […] in a buffer containing an ice nucleus substance to prepare a solution, and many 2-μL liquid droplets of the solution were placed on a copper plate where the temperature could be controlled. The copper plate was cooled at 0.2° C./min, and the number of frozen liquid droplets was visually observed. The temperature at which 50% of the liquid droplets were frozen was defined as a freezing temperature, and a difference between the freezing temperature of the solution including the object to be measured and the ice nucleus substance and the freezing temperature of a solution including only the ice nucleus substance and the buffer (control) (INT50 (° C.)) was defined as a supercooling activity. As the buffer, a 50 mM potassium phosphate buffer (pH 7.0) was used.
In Examples 4 to 8 below, 10 mM silver iodide (AgI) (manufactured by NACALAI TESQUE, INC.), 2 mg/mL dead bacterial cells of an ice nucleation active bacterium Erwinia ananas (manufactured by Wako Pure Chemical Industries, Ltd.), 2 mg/mL dead bacterial cells of an ice nucleation active bacterium Xanthomonas campestris (manufactured by Wako Pure Chemical Industries, Ltd.), and 120 mM phloroglucinol (manufactured by TOKYO CHEMICAL […] CO., LTD.) were used as ice nucleus substances, and ultrapure water obtained by passing water through an ultrapure water device manufactured by Millipore Corporation was used (MilliQ Water). A substance to be measured (1 mg/mL) was mixed in a buffer containing any one of the ice nucleus substances and ultrapure water (MilliQ Water), and the supercooling activities were measured by the above-mentioned method. A difference between the freezing temperature of the solution containing the substance to be measured and the ice nucleus substance and the freezing temperature of the solution including only the ice nucleus substance, and a difference between the freezing temperature of pure water having dissolved therein the substance to be measured and the freezing temperature of only pure water were determined as supercooling activities (ice nucleus formation inhibitory activities) (see FIGS. 8 to 11 and Tables 1 to 4).

The subject of data set [2] is dead bacterial cells of an ice nucleation active bacterium (Erwinia ananas). Briefly: Supercooling activity (ice nucleus formation inhibitory activity), 2-μL droplets on cooled copper plate, Erwinia ananas as ice nucleus substance. The settings on record: for activity that allows water to be supercooled: 2 mg/mL Erwinia ananas, substance 0.01 to 3 mg/mL (FIG. 6); for freezing temperature (INT50): 0.1 mass % substance, 2 mg/mL dead E. ananas cells, cooling 0.2° C./min, temperature at which 50% of droplets froze. Here is the method:
as §1
The water suspension of the crude extract was centrifuged at 20° C. and 14,000 G, and the supernatant was collected. 300 mL of the supernatant and 600 mL of ethyl acetate were mixed, and the mixture was divided into a water-soluble part and an ethyl acetate-soluble part by a separating funnel, followed by drying. Supercooling activities of the parts were measured by the above-mentioned method. Dead bacterial cells of an ice nucleation active bacterium (Erwinia ananas) (manufactured by Wako Pure Chemical Industries, Ltd.) were used as an ice nucleus substance.
The fractions K to S obtained above were analyzed by high-performance liquid chromatography (column: PC hydrophilic interaction chromatography column (HILIC), solvent: acetonitrile:water=9:1, flow rate: 1 mL/min, detector: UV 280 nm). […] The three substances are known substances, and their structures were confirmed by ^1H-NMR. FIGS. 3 to 5 show the resultant ^1H-NMR charts. FIG. 6 show the supercooling activity of water containing each of the three substances with 2 mg/mL Erwinia ananas serving as an ice nucleus-forming substance, together with control data in the case of containing none of the three substances.
A substance to be measured (1 mg/mL) was mixed in a buffer containing any one of the ice nucleus substances and ultrapure water (MilliQ Water), and the supercooling activities were measured by the above-mentioned method. A difference between the freezing temperature of the solution containing the substance to be measured and the ice nucleus substance and the freezing temperature of the solution including only the ice nucleus substance, and a difference between the freezing temperature of pure water having dissolved therein the substance to be measured and the freezing temperature of only pure water were determined as supercooling activities (ice nucleus formation inhibitory activities) (see FIGS. 8 to 11 and Tables 1 to 4).

The nature of data set [3]: Supercooling activity, droplets on cooled copper plate, ultrapure water without ice nucleus substance. Particulars: 0.1 mass % substance; ultrapure water (MilliQ Water); cooling 0.2° C./min. Here is the method:
as §1
(§2) In Examples 4 to 8 below, 10 mM silver iodide (AgI) (manufactured by NACALAI TESQUE, INC.), 2 mg/mL dead bacterial cells of an ice nucleation active bacterium Erwinia ananas (manufactured by Wako Pure Chemical Industries, Ltd.), 2 mg/mL dead bacterial cells of an ice nucleation active bacterium Xanthomonas campestris (manufactured by Wako Pure Chemical Industries, Ltd.), and 120 mM phloroglucinol (manufactured by TOKYO CHEMICAL […] CO., LTD.) were used as ice nucleus substances, and ultrapure water obtained by passing water through an ultrapure water device manufactured by Millipore Corporation was used (MilliQ Water). A substance to be measured (1 mg/mL) was mixed in a buffer containing any one of the ice nucleus substances and ultrapure water (MilliQ Water), and the supercooling activities were measured by the above-mentioned method. […]

The nature of data set [4]: Supercooling activity, droplets on cooled copper plate, phloroglucinol as ice nucleus substance. The settings on record: 0.1 mass % substance; 120 mM phloroglucinol; cooling 0.2° C./min. Here is the method: as §1, §2
Data set [5] concerns dead bacterial cells of an ice nucleation active bacterium Xanthomonas campestris. Kind of data set: Supercooling activity, droplets on cooled copper plate, Xanthomonas campestris as ice nucleus substance. The settings on record: 0.1 mass % substance; 2 mg/mL dead X. campestris cells; cooling 0.2° C./min. Here is the method: as §1, with “used. […]” for “used.”

As for `O=C(O)c1cc(O)c(O)c(O)c1` [GA, gallic acid], the supercooling activity in data set [1] was −1.2 °C.

In the case of `COC(=O)c1cc(O)c(O)c(O)c1` [MG, methyl gallate], the supercooling activity in data set [1] was −3.3 °C.

With `O=C(OC[C@H]1O[C@@H](OC(=O)c2cc(O)c(O)c(O)c2)[C@H](OC(=O)c2cc(O)c(O)c(O)c2)[C@@H](OC(=O)c2cc(O)c(O)c(O)c2)[C@@H]1O)c1cc(O)c(O)c(O)c1` [1,2,3,6-tetra-O-galloyl-β-D-glucose], the “activity that allows water to be supercooled” value (“activity that allows water” for short) in data set [2] is “about 5 °C”.

Compound `O=C(O)/C=C/c1ccc(O)c(O)c1` [CaA, caffeic acid] came in with a supercooling activity in data set [1] of −1.9 °C.

For the compound `Oc1cc(O)c2c(c1)O[C@H](c1cc(O)c(O)c(O)c1)[C@H](O)C2` [EGC, epigallocatechin], the “freezing temperature (INT50)” value in data set [3] is −15.8 °C; in data set [1], −6.9 °C; in data set [4], −8.8 °C; in data set [2], −5.7 °C.

For the compound `O=C(O[C@@H]1Cc2c(O)cc(O)cc2O[C@@H]1c1cc(O)c(O)c(O)c1)c1cc(O)c(O)c(O)c1` [EGCG, epigallocatechin gallate], the “freezing temperature (INT50)” value in data set [3] was −20.0 °C; in data set [1], −6.9 °C; in data set [4], −8.4 °C; in data set [5], −8.9 °C; in data set [2], −8.3 °C.

As to 2,3,6-tri-O-galloyl-α,β-D-hamamelose, the “activity that allows water” value in data set [2] was “about 5 °C”.

As to `O=c1oc2c(O)c(O)cc3c(=O)oc4c(O)c(O)cc1c4c23` [EA, ellagic acid], the supercooling activity in data set [1] is −0.3 °C.

`O=C(/C=C/c1ccc(O)c(O)c1)O[C@@H]1C[C@](O)(C(=O)O)C[C@@H](O)[C@H]1O` [ChA, chlorogenic acid] returned a supercooling activity in data set [1] of −0.6 °C.

Consider `O=C(O[C@@H]1Cc2c(O)cc(O)cc2O[C@@H]1c1ccc(O)c(O)c1)c1cc(O)c(O)c(O)c1` [ECG, epicatechin gallate], for which the “freezing temperature (INT50)” value in data set [3] is −18.7 °C; in data set [1] it was −7.8 °C; in data set [4], −9.6 °C; in data set [5], −8.7 °C; in data set [2], −8.4 °C.

Regarding `O=C(OC[C@H]1O[C@@H](OC(=O)c2cc(O)c(O)c(O)c2)[C@H](OC(=O)c2cc(O)c(O)c(O)c2)[C@@H](O)[C@@H]1O)c1cc(O)c(O)c(O)c1` [1,2,6-tri-O-galloyl-β-D-glucose], the “activity that allows water” value in data set [2] is “about 5 °C”.
